How the values were obtained:
c-mpl [1] = biological target: T1, c-mpl (Homo sapiens, UniProt P40238); settings: Cwirla et al., Science 276:1696-1699 (1997); cited from earlier work
T1 sequence (P40238 26-635): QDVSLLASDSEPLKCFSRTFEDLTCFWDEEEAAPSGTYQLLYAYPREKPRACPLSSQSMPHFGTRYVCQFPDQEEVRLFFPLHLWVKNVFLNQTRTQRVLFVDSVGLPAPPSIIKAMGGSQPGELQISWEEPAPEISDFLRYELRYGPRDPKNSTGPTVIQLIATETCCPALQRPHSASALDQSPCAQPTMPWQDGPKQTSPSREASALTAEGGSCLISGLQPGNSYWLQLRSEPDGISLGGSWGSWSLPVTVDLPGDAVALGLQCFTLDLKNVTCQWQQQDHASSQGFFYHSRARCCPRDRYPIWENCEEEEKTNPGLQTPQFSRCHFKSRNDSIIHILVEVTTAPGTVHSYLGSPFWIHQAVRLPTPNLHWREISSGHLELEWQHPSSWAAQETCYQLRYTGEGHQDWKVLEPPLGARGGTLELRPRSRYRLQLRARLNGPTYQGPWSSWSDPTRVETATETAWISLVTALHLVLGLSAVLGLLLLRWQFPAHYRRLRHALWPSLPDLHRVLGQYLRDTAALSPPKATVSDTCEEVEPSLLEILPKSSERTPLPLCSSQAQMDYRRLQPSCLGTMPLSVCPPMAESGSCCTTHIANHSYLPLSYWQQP

c-mpl [2] = biological target: T1, c-mpl; settings: Cwirla et al., Science 276:1696-1699 (1997); cited from earlier work; remark: listed apart in the source
hu-mpl = hu-mpl (Homo sapiens, UniProt P40238); settings: ratio of KD of TMP1 to KD of peptide
[3] = biological target: murine 32D cells transfected with a human mpl receptor (Homo sapiens, UniProt P40238)
Excerpt: The murine 32D cell proliferation assay involves the use of murine 32D cells that have been transfected with a human mpl receptor.

Sequence	IC50 (c-mpl [1]) [nM]	EC50 (c-mpl [2]) [nM]	Affinity relative to TMP1 (hu-mpl)	Murine 32D Cell Proliferation Assay (relative to TMP1) [3]
IEGPTLRQWLAARA [TPO mimetic peptide]	2	400	–	–
QGALQEGPTLRQWLGWGQWGHS [TMP19]	–	–	0.07	27%
QGCSSGGPTLREWLQCRRMQHS [TMP22]	–	–	>54	Not Detectable
QGCSWGGPTLKQWLQCVRAKHS [TMP23]	–	–	>54	Not Detectable
SAQGIEGPTLRQWLAARALETV [TMP1, reference compound]	–	–	–	100%

Source: US7332474B2, “Peptides and related compounds having thrombopoietic activity” (Amgen Inc., priority 2001, dated 2008)
